Data as given in PubChem BioAssay (NCI).
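The compound was tested at five concentrations on cells cultured in 96-well plates, with a 48-hour exposure period. TGI marks complete inhibition of growth.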

Columns and labels:
Assay in all cases: DTP human tumour cell line panel, 48 h
MDA-N = system: MDA-N
MALME-3M melanoma = system: MALME-3M melanoma
SK-OV-3 ovarian = system: SK-OV-3 ovarian
NCI-H23 lung = system: NCI-H23 lung
TK-10 renal = system: TK-10 renal
LOX IMVI melanoma = system: LOX IMVI melanoma
SF-268 CNS = system: SF-268 CNS
SK-MEL-5 melanoma = system: SK-MEL-5 melanoma
DU-145 prostate = system: DU-145 prostate
OVCAR-8 ovarian = system: OVCAR-8 ovarian

Compound | TGI (MDA-N) | TGI (MALME-3M melanoma) | TGI (SK-OV-3 ovarian) | TGI (NCI-H23 lung) | TGI (TK-10 renal) | TGI (LOX IMVI melanoma) | TGI (SF-268 CNS) | TGI (SK-MEL-5 melanoma) | TGI (DU-145 prostate) | TGI (OVCAR-8 ovarian)
C=CCOCC1C2CCC3(OCCO3)C21 (stereo not given) | > 100 µM | > 100 µM | > 100 µM | > 100 µM | > 100 µM | > 100 µM | > 100 µM | > 100 µM | > 100 µM | > 100 µM
CNC(=O)[C@H](Cc1ccccc1)NC(=O)N(CCC#N)CCN(C(=O)N[C@@H](Cc1ccccc1)C(=O)OC)c1ccccc1 | > 100 µM | > 100 µM | > 100 µM | > 100 µM | > 100 µM | > 100 µM | > 100 µM | > 100 µM | > 100 µM | > 100 µM
O=C(/C=C/c1ccc(OCc2ccccc2)cc1)NCc1ccc(C(=O)NCCc2ccccc2)cc1 | > 100 µM | > 100 µM | > 100 µM | > 100 µM | > 100 µM | > 100 µM | > 100 µM | > 100 µM | > 100 µM | > 100 µM
CC(C)(C)OC(=O)Cn1ncn(NC(=O)Cc2ccccc2)c1=S | > 10 µM | > 10 µM | > 10 µM | > 10 µM | > 10 µM | > 10 µM | > 10 µM | > 10 µM | > 10 µM | > 10 µM
CCCOC(=O)c1cc(O)c(O)c(O)c1 | 76.9 µM | > 100 µM | > 100 µM | > 100 µM | > 100 µM | 30.8 µM | > 100 µM | > 100 µM | > 100 µM | > 100 µM
COc1cccc(NC(=O)CC(=O)NN)c1 | > 100 µM | > 100 µM | > 100 µM | > 100 µM | > 100 µM | > 100 µM | > 100 µM | > 100 µM | > 100 µM | > 100 µM
COC1OC2COC(=O)c3cc(O)c(O)c(O)c3-c3c(cc(O)c(O)c3O)C(=O)OC2C(O)C1O (stereo not given) | 59.2 µM | > 100 µM | > 100 µM | > 100 µM | > 100 µM | 60 µM | > 100 µM | > 100 µM | > 100 µM | > 100 µM
O=c1c(-c2nc3ccccc3c3ccccc3c2=O)nc2ccccc2c2ccccc12 | 69 µM | > 100 µM | > 100 µM | > 100 µM | > 100 µM | > 100 µM | > 100 µM | 86.2 µM | > 100 µM | > 100 µM
CCOP1(=O)CC(C)=C(Cl)C(OC)C1 (stereo not given) | > 100 µM | > 100 µM | > 100 µM | > 100 µM | > 100 µM | > 100 µM | > 100 µM | > 100 µM | > 100 µM | > 100 µM
COc1cc(/C=C(\C)[N+](=O)[O-])cc(OC)c1 | 17.5 µM | 29.4 µM | > 100 µM | 37.1 µM | 26.1 µM | 11.9 µM | 35.6 µM | 31.7 µM | 44.6 µM | 29.7 µM
CCOC(=O)C1=C(O)CC(=O)N=C1N1CCCC1 | > 100 µM | > 100 µM | > 100 µM | > 100 µM | > 100 µM | > 100 µM | > 100 µM | > 100 µM | > 100 µM | > 100 µM
Cc1cccc2c(=O)c3c(O)cc(O)cc3n(C)c12 | > 100 µM | > 100 µM | > 100 µM | > 100 µM | > 100 µM | > 100 µM | > 100 µM | > 100 µM | > 100 µM | > 100 µM
NC1=Nc2cc(C(F)(F)F)ccc2Sc2nc3ccccc3n21 | > 100 µM | > 100 µM | > 100 µM | > 100 µM | > 100 µM | > 100 µM | > 100 µM | > 100 µM | > 100 µM | > 100 µM
c1ccc(C(Oc2noc3ccccc23)c2ccccc2)cc1 | 67.2 µM | > 100 µM | > 100 µM | > 100 µM | > 100 µM | > 100 µM | > 100 µM | 39.6 µM | 78.6 µM | > 100 µM
CN(C(=O)Cc1ccccc1)n1cn[n+](CC(=O)OC(C)(C)C)c1 | > 10 µM | > 10 µM | > 10 µM | > 10 µM | > 10 µM | > 10 µM | > 10 µM | > 10 µM | > 10 µM | > 10 µM
CN(CCN)[C@H](CSSC[C@@H](c1ccccc1O)N(C)CCN)c1ccccc1O | 24.6 µM | 33.3 µM | 25 µM | 28.5 µM | 30.7 µM | 28.5 µM | 33.7 µM | 24.4 µM | 33.1 µM | 47.6 µM
OCCc1ccsc1-c1sc(-c2cc(CCO)c(-c3sc(-c4cc(CCO)c(-c5sccc5CCO)s4)cc3CCO)s2)cc1CCO | 4.29 µM | 2.36 µM | 3.11 µM | 2.87 µM | 3.15 µM | 2.47 µM | 2.14 µM | 3.01 µM | 4.53 µM | 3.13 µM

Compound | TGI (MDA-N) | TGI (MALME-3M melanoma) | TGI (SK-OV-3 ovarian) | TGI (NCI-H23 lung) | TGI (TK-10 renal) | TGI (LOX IMVI melanoma) | TGI (SF-268 CNS) | TGI (SK-MEL-5 melanoma) | TGI (DU-145 prostate) | TGI (OVCAR-8 ovarian)
CCN(CC)c1c(C(C)(C)C)c(=O)n2ccsc2c1OC(C)=O | 34.6 µM | 25.8 µM | 36 µM | 30.7 µM | 34.7 µM | 31.4 µM | 30.1 µM | 32.2 µM | 38.7 µM | 29.1 µM
Cc1nn2c(=O)c([N+](=O)[O-])c(/C=C/c3ccc(F)cc3)nc2s1 | 15.8 µM | 16.7 µM | > 31.6 µM | 23.5 µM | 20.7 µM | 9.19 µM | 26.2 µM | 15.8 µM | > 31.6 µM | 16 µM
O=C1c2cc3c(cc2NC(c2ccccc2F)C1O)OCO3 (stereo not given) | 8.29 µM | > 100 µM | 51.1 µM | > 91.5 µM | 73.1 µM | > 100 µM | 68.2 µM | > 100 µM | > 100 µM | 71.9 µM
CC1CC(=O)N(N(C)C)C2(C#N)C(=O)N=C(N)C12C#N (stereo not given) | > 100 µM | > 100 µM | > 100 µM | > 100 µM | > 100 µM | > 100 µM | > 100 µM | > 100 µM | > 100 µM | > 100 µM
CC(=O)O[C@H]1[C@@H](N2CCOCC2)C[C@H]2[C@@H]3CC=C4C[C@@H](N5CCCC5)CC[C@]4(C)[C@H]3CC[C@@]21C | > 100 µM | > 100 µM | > 100 µM | > 100 µM | > 100 µM | > 100 µM | > 100 µM | > 100 µM | > 100 µM | > 100 µM
COc1ccc(-c2nc3ccccc3c(=O)[nH]2)cc1 | > 100 µM | > 100 µM | > 100 µM | > 100 µM | > 100 µM | > 100 µM | > 100 µM | > 100 µM | > 100 µM | > 100 µM
C[N+](C)(CCNc1ccc(NCC[N+](C)(C)Cc2ccc([N+](=O)[O-])cc2)c2c1C(=O)c1c(O)ccc(O)c1C2=O)Cc1ccc([N+](=O)[O-])cc1 | > 50 µM | > 50 µM | > 50 µM | > 50 µM | > 50 µM | > 50 µM | > 50 µM | > 50 µM | > 50 µM | > 50 µM
COC(=O)c1ccccc1C1CN=NC12Cc1ccc(C)cc1C2=O (stereo not given) | > 100 µM | > 100 µM | > 100 µM | > 100 µM | > 100 µM | > 100 µM | > 100 µM | > 100 µM | > 100 µM | > 100 µM
Nc1nc(Sc2ccc([N+](=O)[O-])c3nonc23)c2[nH]cnc2n1 | 12.2 µM | 5.03 µM | 9.95 µM | 10.9 µM | 6.4 µM | 11.7 µM | 18 µM | 7.8 µM | 16.2 µM | 9.7 µM
Clc1ccc(-c2cn3c(nc4ccccc43)c(-c3ccccc3)n2)cc1 | > 100 µM | > 63.7 µM | 26.5 µM | 64.2 µM | 62.2 µM | > 100 µM | > 100 µM | 46.5 µM | > 100 µM | 33 µM
O=c1cc(NNc2cccc3ccccc23)[nH]c(=O)[nH]1 | 24.4 µM | 31.8 µM | 88.6 µM | 28.9 µM | 33.8 µM | 26.7 µM | 31 µM | 29.7 µM | 28.6 µM | 36.8 µM
NC(CCC(=O)c1ccccn1)C(=O)O (stereo not given) | > 100 µM | > 100 µM | > 100 µM | > 100 µM | > 100 µM | > 100 µM | > 100 µM | > 100 µM | > 100 µM | > 100 µM
CC(=O)c1csc2c1C(=O)c1ccccc1C2=O | 4.21 µM | 1.7 µM | > 100 µM | 3.59 µM | 4.99 µM | 31.3 µM | 12.9 µM | 0.376 µM | 3.21 µM | 7.11 µM
COC(=O)[C@@H]1c2c(oc3cc(CO)cc(O)c3c2=O)C=C[C@H]1O | 18.9 µM | 4.91 µM | 35.4 µM | 36 µM | 6.8 µM | 12.4 µM | 21.7 µM | 28.5 µM | 11.7 µM | 21.7 µM
CC(=O)OCC1OC(OCCCOP(=O)(OCCC#N)OCC2OC(n3cnc4c(N)ncnc43)C(OC(=O)c3ccccc3)C2OC(=O)c2ccccc2)C(OC(C)=O)C(OC(C)=O)C1OC(C)=O (stereo not given) | > 100 µM | 5.53 µM | > 100 µM | > 100 µM | > 100 µM | > 100 µM | > 100 µM | > 100 µM | > 100 µM | > 100 µM
O=C(/C=C/c1ccc(-c2ccccc2)cc1)NCc1ccc(C(=O)NCCc2ccccc2)cc1 | > 100 µM | > 100 µM | > 100 µM | > 100 µM | > 100 µM | > 100 µM | > 100 µM | > 100 µM | > 100 µM | > 100 µM
